# Experimental data as given in ChEMBL document CHEMBL1201861, “Genomics of Drug Sensitity in Cancer screening data, Wellcome Trust Sanger Institute”.
# What was measured:
# Assay in all cases: cells
# [1] = tested on: LS-123; type: functional, cell-based, Homo sapiens; conditions: Homo sapiens, LS-123
# Description: SANGER: Inhibition of human LS-123 cell growth in a cell viability assay.
# [2] = tested on: MZ7-mel; type: functional, cell-based, Homo sapiens; conditions: Homo sapiens, MZ7-mel;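 note: growth inhibition of human MZ7-mel cells, measured by a cell viability assay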
# Description: SANGER: Inhibition of human MZ7-mel cell growth in a cell viability assay.
# [3] = tested on: ALL-PO; type: functional, cell-based, Homo sapiens; conditions: Homo sapiens, ALL-PO;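 note: growth inhibition of ALL-PO cells, read out by a cell viability assay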
# Description: SANGER: Inhibition of human ALL-PO cell growth in a cell viability assay.
# [4] = tested on: Calu-6; type: functional, cell-based, Homo sapiens; conditions: Homo sapiens, Calu-6;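 note: growth of human Calu-6 cells, read out by a cell viability assay, IC50 marking inhibition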
# Description: SANGER: Inhibition of human Calu-6 cell growth in a cell viability assay.
# [5] = tested on: 8-MG-BA; type: functional, cell-based, Homo sapiens; conditions: Homo sapiens, 8-MG-BA;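 note: growth inhibition of 8-MG-BA cells, read out with a cell viability assay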
# Description: SANGER: Inhibition of human 8-MG-BA cell growth in a cell viability assay.
# [6] = tested on: CGTH-W-1; type: functional, cell-based, Homo sapiens; conditions: Homo sapiens, CGTH-W-1;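 note: growth inhibition of human CGTH-W-1 cells measured by cell viability assay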
# Description: SANGER: Inhibition of human CGTH-W-1 cell growth in a cell viability assay.
# [7] = tested on: JAR; type: functional, cell-based, Homo sapiens; conditions: Homo sapiens, JAR;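 note: growth inhibition of human JAR cells determined with a cell viability assay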
# Description: SANGER: Inhibition of human JAR cell growth in a cell viability assay.
# [8] = tested on: DB; type: functional, cell-based, Homo sapiens; conditions: Homo sapiens, DB
# Description: SANGER: Inhibition of human DB cell growth in a cell viability assay.
# [9] = tested on: TE-5; type: functional, cell-based, Homo sapiens; conditions: Homo sapiens, TE-5;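 note: inhibition of cell growth, read out by a cell viability assay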
# Description: SANGER: Inhibition of human TE-5 cell growth in a cell viability assay.
# [10] = tested on: NB17; type: functional, cell-based, Homo sapiens; conditions: Homo sapiens, NB17;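 note: growth inhibition of NB17 cells, read out with a cell viability assay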
# Description: SANGER: Inhibition of human NB17 cell growth in a cell viability assay.
# [11] = tested on: D-392MG; type: functional, cell-based, Homo sapiens; conditions: Homo sapiens, D-392MG
# [12] = tested on: ML-2; type: functional, cell-based, Homo sapiens; conditions: Homo sapiens, ML-2;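 note: growth inhibition of ML-2 cells, measured with a cell viability readout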
# Description: SANGER: Inhibition of human ML-2 cell growth in a cell viability assay.
# [13] = tested on: KNS-42; type: functional, cell-based, Homo sapiens; conditions: Homo sapiens, KNS-42;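 note: growth inhibition of KNS-42 cells, read out with a cell viability assay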
# Description: SANGER: Inhibition of human KNS-42 cell growth in a cell viability assay.
# [14] = tested on: HCC 2998; type: functional, cell-based, Homo sapiens; conditions: Homo sapiens, HCC 2998;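 note: growth inhibition of human HCC2998 cells, measured with a cell viability read-out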
# Description: SANGER: Inhibition of human HCC2998 cell growth in a cell viability assay.
# [15] = tested on: TE-12; type: functional, cell-based, Homo sapiens; conditions: Homo sapiens, TE-12;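 note: growth inhibition of TE-12 cells, read out by a cell viability assay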
# Description: SANGER: Inhibition of human TE-12 cell growth in a cell viability assay.
# [16] = tested on: TE-8; type: functional, cell-based, Homo sapiens; conditions: Homo sapiens, TE-8;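 note: growth inhibition of TE-8 cells, measured with a cell viability readout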
# Description: SANGER: Inhibition of human TE-8 cell growth in a cell viability assay.
# [17] = tested on: GAK; type: functional, cell-based, Homo sapiens; conditions: Homo sapiens, GAK;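 note: cell growth inhibition read out by a cell viability assay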
# Description: SANGER: Inhibition of human GAK cell growth in a cell viability assay.
# [18] = tested on: A253 cell line; type: functional, cell-based, Homo sapiens; conditions: Homo sapiens, A253;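 note: growth inhibition of A253 cells, read out with a cell viability assay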
# Description: SANGER: Inhibition of human A253 cell growth in a cell viability assay.
# [19] = tested on: HDLM-2; type: functional, cell-based, Homo sapiens; conditions: Homo sapiens, HDLM-2;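 note: cell viability assay measuring suppression of HDLM-2 proliferation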
# Description: SANGER: Inhibition of human HDLM-2 cell growth in a cell viability assay.
# [20] = tested on: COLO-829; type: functional, cell-based, Homo sapiens; conditions: Homo sapiens, COLO-829
# Description: SANGER: Inhibition of human COLO-829 cell growth in a cell viability assay.
# [21] = tested on: LAN-6; type: functional, cell-based, Homo sapiens; conditions: Homo sapiens, LAN-6;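 note: growth inhibition of LAN-6 cells, determined with a cell viability assay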
# Description: SANGER: Inhibition of human LAN-6 cell growth in a cell viability assay.
# [22] = tested on: COLO-320-HSR; type: functional, cell-based, Homo sapiens; conditions: Homo sapiens, COLO-320-HSR;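 note: growth inhibition of COLO-320-HSR cells, determined with a cell viability assay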
# Description: SANGER: Inhibition of human COLO-320-HSR cell growth in a cell viability assay.
# [23] = tested on: COLO-668; type: functional, cell-based, Homo sapiens; conditions: Homo sapiens, COLO-668
# Description: SANGER: Inhibition of human COLO-668 cell growth in a cell viability assay.
# [24] = tested on: LB771-HNC; type: functional, cell-based, Homo sapiens; conditions: Homo sapiens, LB771-HNC;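 note: growth inhibition of LB771-HNC human cells, read out with a cell viability assay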
# Description: SANGER: Inhibition of human LB771-HNC cell growth in a cell viability assay.
# [25] = tested on: no-11; type: functional, cell-based, Homo sapiens; conditions: Homo sapiens;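 note: growth inhibition of human NO-11 cells, read out with a cell viability assay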
# Description: SANGER: Inhibition of human no-11 cell growth in a cell viability assay.
# [26] = tested on: TE-9; type: functional, cell-based, Homo sapiens; conditions: Homo sapiens, TE-9;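 note: cell growth inhibition, measured with a cell viability readout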
# Description: SANGER: Inhibition of human TE-9 cell growth in a cell viability assay.
# [27] = tested on: KURAMOCHI; type: functional, cell-based, Homo sapiens; conditions: Homo sapiens, KURAMOCHI;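 note: growth inhibition of KURAMOCHI cells, read out with a cell viability assay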
# Description: SANGER: Inhibition of human KURAMOCHI cell growth in a cell viability assay.
# [28] = tested on: D283 Med; type: functional, cell-based, Homo sapiens; conditions: Homo sapiens, D283 Med
# Description: SANGER: Inhibition of human D-283MED cell growth in a cell viability assay.
# [29] = tested on: KM-H2; type: functional, cell-based, Homo sapiens; conditions: Homo sapiens, KM-H2;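 note: growth inhibition of KM-H2 cells, read out by a cell viability assay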
# Description: SANGER: Inhibition of human KM-H2 cell growth in a cell viability assay.
# [30] = tested on: A388; type: functional, cell-based, Homo sapiens; conditions: Homo sapiens, A388;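 note: growth inhibition of human A388 cells, read out with a cell viability assay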
# Description: SANGER: Inhibition of human A388 cell growth in a cell viability assay.
# [31] = tested on: NCI-H720; type: functional, cell-based, Homo sapiens; conditions: Homo sapiens, NCI-H720;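 note: growth inhibition of human NCI-H720 cells determined by a cell viability assay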
# Description: SANGER: Inhibition of human NCI-H720 cell growth in a cell viability assay.
# [32] = tested on: ES8; type: functional, cell-based, Homo sapiens; conditions: Homo sapiens, ES8;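 note: growth inhibition of human ES8 cells, read out with a cell viability assay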
# Description: SANGER: Inhibition of human ES8 cell growth in a cell viability assay.
# [33] = tested on: EW-1; type: functional, cell-based, Homo sapiens; conditions: Homo sapiens, EW-1;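 note: growth inhibition of the human EW-1 cell line, read out by a cell viability assay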
# Description: SANGER: Inhibition of human EW-1 cell growth in a cell viability assay.
# [34] = tested on: HL-60; type: functional, cell-based, Homo sapiens; conditions: Homo sapiens, HL-60;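 note: growth inhibition of human HL-60 cells, read out with a cell viability assay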
# Description: SANGER: Inhibition of human HL-60 cell growth in a cell viability assay.
# [35] = tested on: LOX IMVI; type: functional, cell-based, Homo sapiens; conditions: Homo sapiens, LOX IMVI
# Description: SANGER: Inhibition of human LOXIMVI cell growth in a cell viability assay.
# [36] = tested on: EW-11; type: functional, cell-based, Homo sapiens; conditions: Homo sapiens, EW-11;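 note: growth inhibition of human EW-11 cells, measured with a cell viability assay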
# Description: SANGER: Inhibition of human EW-11 cell growth in a cell viability assay.
# [37] = tested on: EOL1; type: functional, cell-based, Homo sapiens; conditions: Homo sapiens, EOL1;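 note: growth inhibition of EoL-1 cells, read out by a cell viability assay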
# Description: SANGER: Inhibition of human EoL-1-cell cell growth in a cell viability assay.
# [38] = tested on: EW-16; type: functional, cell-based, Homo sapiens; conditions: Homo sapiens, EW-16;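 note: growth inhibition of human EW-16 cells, read out as cell viability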
# Description: SANGER: Inhibition of human EW-16 cell growth in a cell viability assay.
# [39] = tested on: COLO-684; type: functional, cell-based, Homo sapiens; conditions: Homo sapiens, COLO-684
# Description: SANGER: Inhibition of human COLO-684 cell growth in a cell viability assay.
# [40] = tested on: SHP77; type: functional, cell-based, Homo sapiens, SHP-77; conditions: Homo sapiens, SHP77;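 note: growth inhibition of human SHP-77 cells measured by a cell viability assay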
# Description: SANGER: Inhibition of human SHP-77 cell growth in a cell viability assay.
# [41] = tested on: COLO-800; type: functional, cell-based, Homo sapiens; conditions: Homo sapiens, COLO-800;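 note: growth inhibition of COLO-800 cells, read out with a cell viability assay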
# Description: SANGER: Inhibition of human COLO-800 cell growth in a cell viability assay.
# [42] = tested on: BB30-HNC; type: functional, cell-based, Homo sapiens; conditions: Homo sapiens, BB30-HNC;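 note: growth inhibition of the cultured cell line, read out by a cell viability assay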
# Description: SANGER: Inhibition of human BB30-HNC cell growth in a cell viability assay.
# [43] = tested on: HH; type: functional, cell-based, Homo sapiens; conditions: Homo sapiens, HH
# Description: SANGER: Inhibition of human HH cell growth in a cell viability assay.
# [44] = tested on: BV-173; type: functional, cell-based, Homo sapiens; conditions: Homo sapiens, BV-173
# Description: SANGER: Inhibition of human BV-173 cell growth in a cell viability assay.
# [45] = tested on: KS-1; type: functional, cell-based, Homo sapiens; conditions: Homo sapiens, KS-1;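 note: growth inhibition of KS-1 cells, read out with a cell viability assay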
# Description: SANGER: Inhibition of human KS-1 cell growth in a cell viability assay.
# [46] = tested on: NCI-H1395; type: functional, cell-based, Homo sapiens; conditions: Homo sapiens, NCI-H1395;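 note: cell viability assay read-out quantifying reduced proliferation of human NCI-H1395 cells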
# Description: SANGER: Inhibition of human NCI-H1395 cell growth in a cell viability assay.
compound,measurement,setting,value
COc1cc(N2CCN(C)CC2)ccc1Nc1ncc2c(n1)N(C)c1ccccc1C(=O)N2C,IC50,[1],> 8 µM
same,IC50,[2],7.54 µM
same,IC50,[3],5.74 µM
same,IC50,[4],> 8 µM
same,IC50,[5],> 8 µM
same,IC50,[6],> 8 µM
same,IC50,[7],> 8 µM
same,IC50,[8],> 8 µM
same,IC50,[9],> 8 µM
same,IC50,[10],> 8 µM
same,IC50,[11],> 8 µM
same,IC50,[12],7.33 µM
same,IC50,[13],> 8 µM
same,IC50,[14],> 8 µM
same,IC50,[15],5.5 µM
same,IC50,[16],> 8 µM
same,IC50,[17],> 8 µM
same,IC50,[18],> 8 µM
same,IC50,[19],> 8 µM
same,IC50,[20],> 8 µM
same,IC50,[21],7.97 µM
same,IC50,[22],> 8 µM
same,IC50,[23],> 8 µM
same,IC50,[24],> 8 µM
same,IC50,[25],> 8 µM
same,IC50,[26],> 8 µM
same,IC50,[27],> 8 µM
same,IC50,[28],> 8 µM
same,IC50,[29],> 8 µM
same,IC50,[30],6.57 µM
same,IC50,[31],> 8 µM
same,IC50,[32],4.16 µM
same,IC50,[33],3.84 µM
same,IC50,[34],5.14 µM
same,IC50,[35],> 8 µM
same,IC50,[36],> 8 µM
same,IC50,[37],> 8 µM
same,IC50,[38],> 8 µM
same,IC50,[39],> 8 µM
same,IC50,[40],> 8 µM
same,IC50,[41],> 8 µM
same,IC50,[42],4.51 µM
same,IC50,[43],4.58 µM
same,IC50,[44],7.43 µM
same,IC50,[45],5.38 µM
same,IC50,[46],> 8 µM
C#Cc1cccc(Nc2ncnc3cc(OCCOC)c(OCCOC)cc23)c1 [ERLOTINIB],IC50,[1],> 2 µM
same,IC50,[2],> 2 µM
same,IC50,[3],> 2 µM
same,IC50,[4],> 2 µM
same,IC50,[5],> 2 µM
same,IC50,[6],> 2 µM
same,IC50,[9],> 2 µM
same,IC50,[10],> 2 µM
same,IC50,[11],> 2 µM
same,IC50,[12],> 2 µM
same,IC50,[13],> 2 µM
same,IC50,[14],> 2 µM
same,IC50,[15],0.0544 µM
same,IC50,[16],> 2 µM
same,IC50,[18],> 2 µM
same,IC50,[19],> 2 µM
same,IC50,[20],> 2 µM
same,IC50,[21],> 2 µM
same,IC50,[22],> 2 µM
same,IC50,[23],> 2 µM
same,IC50,[24],> 2 µM
same,IC50,[25],> 2 µM
same,IC50,[26],1.23 µM
same,IC50,[27],> 2 µM
same,IC50,[28],> 2 µM
same,IC50,[29],> 2 µM
same,IC50,[30],1.09 µM
same,IC50,[31],> 2 µM
same,IC50,[32],> 2 µM
same,IC50,[33],> 2 µM
same,IC50,[34],> 2 µM
same,IC50,[35],> 2 µM
same,IC50,[36],> 2 µM
same,IC50,[37],> 2 µM
same,IC50,[38],> 2 µM
same,IC50,[39],> 2 µM
same,IC50,[40],> 2 µM
same,IC50,[41],> 2 µM
same,IC50,[42],0.148 µM
same,IC50,[43],> 2 µM
same,IC50,[44],> 2 µM
same,IC50,[45],> 2 µM
same,IC50,[46],> 2 µM
